Data as given in ChEMBL document CHEMBL2150995, “Identification of an Adamantyl Azaquinolone JNK Selective Inhibitor” (ACS Med Chem Lett, 2012).
In brackets after ≈: the same amount, converted by molar mass. Values belong to the compound of their own block, whether it stands above or below them. Activity calls are given as the source filed them. The rule behind the calls is not given here.

Tests used:
[1] = Plasma concentration in C57 mouse at 30 mg/kg, po measured at 8 hrs; assay type: ADME, organism-based; set-up: dose 30 mg/kg, route oral
[2] = Drug uptake in C57 mouse kidney at 30 mg/kg, po measured at 8 hrs; assay type: ADME, organism-based; set-up: dose 30 mg/kg, route oral; conditions: read-out: Drug uptake
[3] = Mean residence time in C57 mouse at 30 mg/kg, po; assay type: ADME, organism-based; set-up: dose 30 mg/kg, route oral; conditions: in vivo
[4] = Drug uptake in C57 mouse liver at 30 mg/kg, po measured at 8 hrs; assay type: ADME, organism-based; set-up: dose 30 mg/kg, route oral; conditions: read-out: Drug uptake
[5] = Tmax in C57 mouse at 30 mg/kg, po; assay type: ADME, organism-based; set-up: dose 30 mg/kg, route oral; conditions: in vivo
[6] = Clearance in mouse liver microsomes; assay type: ADME, Microsome
[7] = Cmax in C57 mouse at 30 mg/kg, po; assay type: ADME, organism-based; set-up: dose 30 mg/kg, route oral; conditions: in vivo
[8] = target: T1, Mitogen-activated protein kinase 8 (Homo sapiens, UniProt P45983); assay: Inhibition of JNK1 after 30 mins by TR-FRET assay
[9] = AUC in C57 mouse at 30 mg/kg, po; assay type: ADME, organism-based; set-up: dose 30 mg/kg, route oral; conditions: plasma
[10] = Solubility of the compound in acetonitrile/water at pH 6.5 by lyophilization solubility assay; assay type: physicochemical
[11] = Clearance in mouse hepatocytes; assay type: ADME, cell-based, Liver, Hepatocyte
[12] = target: T1, Mitogen-activated protein kinase 8; assay: Inhibition of JNK1-mediated c-jun phosphorylation in TNF-alpha stimulated human HK-2 cells after 30 mins by TR-FRET assay; assay type: cell-based
[13] = Half life in rat at 75 mg/kg, po administered as MBP formulation; assay type: ADME, organism-based; set-up: dose 75 mg/kg, route oral; conditions: in vivo
[14] = Clearance in rat at 5 mg/kg, iv administered as DMSO formulation; assay type: ADME, organism-based; set-up: dose 5 mg/kg, route intravenous; conditions: in vivo
[15] = AUC in rat at 30 mg/kg, po administered as DMSO formulation; assay type: ADME, organism-based; set-up: dose 30 mg/kg, route oral; conditions: plasma
[16] = AUC in rat at 75 mg/kg, po administered as MBP formulation; assay type: ADME, organism-based; set-up: dose 75 mg/kg, route oral; conditions: plasma
[17] = Solubility of the compound in MeOH solvate by lyophilization solubility assay; assay type: physicochemical
[18] = Half life in C57 mouse at 5 mg/kg, iv administered as DMSO formulation; assay type: ADME, organism-based; set-up: dose 5 mg/kg, route intravenous; conditions: in vivo
[19] = Half life in rat at 30 mg/kg, po administered as DMSO formulation; assay type: ADME, organism-based; set-up: dose 30 mg/kg, route oral; conditions: in vivo
[20] = Half life in rat at 5 mg/kg, iv administered as DMSO formulation; assay type: ADME, organism-based; set-up: dose 5 mg/kg, route intravenous; conditions: in vivo
[21] = Clearance in C57 mouse at 5 mg/kg, iv; assay type: ADME, organism-based; set-up: dose 5 mg/kg, route intravenous; conditions: in vivo
[22] = Mean residence time in C57 mouse at 5 mg/kg, iv administered as DMSO formulation; assay type: ADME, organism-based; set-up: dose 5 mg/kg, route intravenous; conditions: in vivo
[23] = Extrapolated AUC in C57 mouse at 5 mg/kg, iv administered as DMSO formulation; assay type: ADME, organism-based; set-up: dose 5 mg/kg, route intravenous; conditions: in vivo
[24] = Cmax in rat at 75 mg/kg, po administered as MBP formulation; assay type: ADME, organism-based; set-up: dose 75 mg/kg, route oral; conditions: in vivo
[25] = Half life in C57 mouse at 75 mg/kg, po administered as MBP formulation; assay type: ADME, organism-based; set-up: dose 75 mg/kg, route oral; conditions: in vivo
[26] = AUC in C57 mouse at 30 mg/kg, po administered as DMSO formulation; assay type: ADME, organism-based; set-up: dose 30 mg/kg, route oral; conditions: plasma
[27] = Tmax in rat at 30 mg/kg, po administered as DMSO formulation; assay type: ADME, organism-based; set-up: dose 30 mg/kg, route oral; conditions: in vivo
[28] = AUC (0 to 24 hrs) in C57 mouse at 5 mg/kg, iv; assay type: ADME, organism-based; set-up: time < 24 hr, dose 5 mg/kg, route intravenous; conditions: plasma
[29] = Cmax in C57 mouse at 75 mg/kg, po administered as MBP formulation; assay type: ADME, organism-based; set-up: dose 75 mg/kg, route oral; conditions: in vivo
[30] = Tmax in C57 mouse at 75 mg/kg, po administered as MBP formulation; assay type: ADME, organism-based; set-up: dose 75 mg/kg, route oral; conditions: in vivo
[31] = Tmax in rat at 75 mg/kg, po administered as MBP formulation; assay type: ADME, organism-based; set-up: dose 75 mg/kg, route oral; conditions: in vivo
[32] = AUC in C57 mouse at 75 mg/kg, po administered as MBP formulation; assay type: ADME, organism-based; set-up: dose 75 mg/kg, route oral; conditions: plasma
[33] = Extrapolated AUC in rat at 5 mg/kg, iv administered as DMSO formulation; assay type: ADME, organism-based; set-up: dose 5 mg/kg, route intravenous; conditions: in vivo
[34] = test system: Rattus norvegicus; assay: In vivo inhibition of JNK-mediated c-jun phosphorylation in Sprague-Dawley rat kidney at 75 mg/kg, po bid administered in MBP formulation 23 hrs prior TNF-alpha challenge measured 1 hr post challenge by Western blot method; assay type: functional, organism-based; set-up: dose 75 mg/kg
[35] = test system: Rattus norvegicus; assay: In vivo inhibition of JNK-mediated c-jun phosphorylation in Sprague-Dawley rat assessed as phosphorylated c-jun level in kidney at 75 mg/kg, po administered as single dose in MBP formulation 7 hrs prior TNF-alpha challenge measured 1 hr post challenge by Western blot method relative to untreated control; assay type: functional
[36] = Tmax in C57 mouse at 30 mg/kg, po administered as DMSO formulation; assay type: ADME, organism-based; set-up: dose 30 mg/kg, route oral; conditions: in vivo
[37] = Clearance in C57 mouse at 5 mg/kg, iv administered as DMSO formulation; assay type: ADME, organism-based; set-up: dose 5 mg/kg, route intravenous; conditions: in vivo
[38] = Volume of distribution in C57 mouse at 5 mg/kg, iv administered as DMSO formulation; assay type: ADME, organism-based; set-up: dose 5 mg/kg, route intravenous; conditions: in vivo
[39] = Volume of distribution in rat at 5 mg/kg, iv administered as DMSO formulation; assay type: ADME, organism-based; set-up: dose 5 mg/kg, route intravenous; conditions: in vivo
[40] = Cmax in C57 mouse at 30 mg/kg, po administered as DMSO formulation; assay type: ADME, organism-based; set-up: dose 30 mg/kg, route oral; conditions: in vivo
[41] = Cmax in rat at 30 mg/kg, po administered as DMSO formulation; assay type: ADME, organism-based; set-up: dose 30 mg/kg, route oral; conditions: in vivo
[42] = test system: Rattus norvegicus; assay: In vivo inhibition of JNK-mediated c-jun phosphorylation in Sprague-Dawley rat kidney at 75 mg/kg, po tid administered in MBP formulation 23 hrs prior TNF-alpha challenge measured 1 hr post challenge by Western blot method; assay type: functional, organism-based; set-up: dose 75 mg/kg
[43] = Volume of distribution at steady state in C57 mouse at 5 mg/kg, iv; assay type: ADME, organism-based; set-up: dose 5 mg/kg, route intravenous; conditions: in vivo, read-out: Vdss
[44] = Mean residence time in rat at 5 mg/kg, iv administered as DMSO formulation; assay type: ADME, organism-based; set-up: dose 5 mg/kg, route intravenous; conditions: in vivo

T1 sequence (P45983 whole entry): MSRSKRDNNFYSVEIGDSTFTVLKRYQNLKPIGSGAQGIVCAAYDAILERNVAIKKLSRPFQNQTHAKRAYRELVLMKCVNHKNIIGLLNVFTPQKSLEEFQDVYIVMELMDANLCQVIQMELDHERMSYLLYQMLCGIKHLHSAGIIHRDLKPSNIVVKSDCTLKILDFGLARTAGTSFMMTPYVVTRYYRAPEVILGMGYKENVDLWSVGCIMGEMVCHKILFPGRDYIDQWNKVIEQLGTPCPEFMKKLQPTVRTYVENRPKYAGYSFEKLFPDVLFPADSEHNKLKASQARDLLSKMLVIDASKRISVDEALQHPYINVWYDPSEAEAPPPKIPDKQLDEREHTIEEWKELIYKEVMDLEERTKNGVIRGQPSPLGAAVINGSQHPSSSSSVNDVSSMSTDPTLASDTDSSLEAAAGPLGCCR

Compound: COC(=O)c1c(Cc2ccc(C(=O)NCC(C)(C)O)cc2)c(=O)c2cccnc2n1-c1ccccc1
concentration at 8 h [1]: 740 nM
concentration at 8 h [2]: 1420 nM
MRT [3]: 3.14 h
concentration at 8 h [4]: 4000 nM
Tmax [5]: 0.25 h

Compound: COC(=O)c1c(Cc2ccc(C(=O)N[C@H](CO)C(C)(C)C)cc2)c(=O)c2cccnc2n1-c1ccccc1
concentration at 8 h [1]: 20 nM
concentration at 8 h [2]: 30 nM
MRT [3]: 1.42 h
concentration at 8 h [4]: 230 nM
Tmax [5]: 0.25 h

Compound: COC(=O)c1c(Cc2ccc(C(=O)N[C@@H]3[C@@H]4C[C@@H]5C[C@H]3C[C@@](O)(C5)C4)cc2)c(=O)c2cccnc2n1-c1ccccc1
half-life [13]: 2 h
clearance [14]: 6.4 mL/min/kg
AUC [15]: 48300 ng·h/mL
CLhep predicted [6]: 59 mL/min/kg
AUC [16]: 252000 ng·h/mL
solubility [17]: 14 µg/mL (≈ 24.8 µM)
half-life [18]: 0.6 h
half-life [19]: 2.4 h
Cmax [7]: 13600 ng/mL
half-life [20]: 2.4 h
clearance [21]: 8.4 mL/min/kg
MRT [22]: 0.6 h
AUC [23]: 9890 ng·h/mL
Cmax [24]: 30100 ng/mL
half-life [25]: 1.62 h
AUC [26]: 22400 ng·h/mL
Tmax [27]: 4 h
IC50 [8]: 0.012 µM
AUC(0-t) at 24 h [28]: 9890 ng·h/mL
concentration at 8 h [1]: 560 nM
Cmax [29]: 18100 ng/mL
concentration at 8 h [2]: 860 nM
AUC [9]: 22400 ng·h/mL
Tmax [30]: 1 h
solubility [10]: 14 µg/mL (≈ 24.8 µM)
Tmax [31]: 4 h
AUC [32]: 49200 ng·h/mL
CLhep predicted [11]: 10.9 mL/min/kg
AUC [33]: 16300 ng·h/mL
inhibition [34]: Active
inhibition in vivo at 75 mg/kg [35]: 52%
Tmax [36]: 0.25 h
clearance [37]: 8.4 mL/min/kg
Vd [38]: 0.3 L/kg
Vd [39]: 0.61 L/kg
Cmax [40]: 13600 ng/mL
MRT [3]: 2.38 h
concentration at 8 h [4]: 2960 nM
Cmax [41]: 8030 ng/mL
Tmax [5]: 0.25 h
inhibition [42]: Active
Vd [43]: 0.3 L/kg
MRT [44]: 1.8 h
EC50 [12]: 4.1 µM

Compound: COC(=O)c1c(Cc2ccc(C(=O)NC3(CO)CC3)cc2)c(=O)c2cccnc2n1-c1ccccc1
CLhep predicted [6]: 45 mL/min/kg
Cmax [7]: 4370 ng/mL
IC50 [8]: 0.045 µM
concentration at 8 h [1]: 380 nM
concentration at 8 h [2]: 860 nM
AUC [9]: 7480 ng·h/mL
solubility [10]: 138 µg/mL (≈ 285 µM)
CLhep predicted [11]: 33.2 mL/min/kg
MRT [3]: 1.73 h
concentration at 8 h [4]: 4490 nM
Tmax [5]: 0.25 h
EC50 [12]: 21 µM

Compound: COC(=O)c1c(Cc2ccc(C(=O)N[C@H]3[C@@H]4C[C@@H]5C[C@H]3C[C@@](O)(C5)C4)cc2)c(=O)c2cccnc2n1-c1ccccc1
CLhep predicted [6]: 81 mL/min/kg
IC50 [8]: 0.047 µM
solubility [10]: 25 µg/mL (≈ 44.4 µM)
EC50 [12]: 8.5 µM

The remaining lines, values ahead:

CLhep predicted [6]: 58 mL/min/kg
Cmax [7]: 3840 ng/mL
IC50 [8]: 0.045 µM
concentration at 8 h [1]: 380 nM
concentration at 8 h [2]: 620 nM
AUC [9]: 7010 ng·h/mL
solubility [10]: 103 µg/mL (≈ 212 µM)
CLhep predicted [11]: 52.9 mL/min/kg
MRT [3]: 2.03 h
concentration at 8 h [4]: 2490 nM
Tmax [5]: 0.25 h
EC50 [12]: 9 µM
Compound: COC(=O)c1c(Cc2ccc(C(=O)NC(C)(C)CO)cc2)c(=O)c2cccnc2n1-c1ccccc1

CLhep predicted [6]: 67 mL/min/kg
IC50 [8]: 0.044 µM
solubility [10]: 4.6 µg/mL (≈ 9.37 µM)
CLhep predicted [11]: 31.7 mL/min/kg
EC50 [12]: 10.1 µM
Compound: COC(=O)c1c(Cc2ccc(C(=O)NCCO)cc2)c(=O)c2ccc(Cl)cc2n1-c1ccccc1

concentration at 8 h [1]: 810 nM
concentration at 8 h [2]: 1890 nM
MRT [3]: 3.45 h
concentration at 8 h [4]: 5570 nM
Tmax [5]: 0.25 h
Vd [43]: 0.73 L/kg
Compound: COC(=O)c1c(Cc2ccc(C(=O)N[C@H]3CC[C@H](O)CC3)cc2)c(=O)c2cccnc2n1-c1ccccc1

solubility [10]: 21.9 µg/mL (≈ 38.9 µM)
Compound: COC(=O)c1c(Cc2ccc(C(=O)N[C@@H]3[C@@H]4C[C@@H]5C[C@H]3C[C@@](N)(C5)C4)cc2)c(=O)c2cccnc2n1-c1ccccc1
